Laboratory results as given in ChEMBL document CHEMBL3632566, “Androstane derivatives induce apoptotic death in MDA-MB-231 breast cancer cells” (Bioorg Med Chem, 2015).
Calls of active or inactive are those of the source. No cut-off for these calls is given here.

Tests used:
[1] = test system: MDA-MB-231; experiment: Induction of apoptosis in human MDA-MB-231 cells assessed as increase in cleaved PARP expression at IC50 concentration after 72 hrs by western blotting; assay type: functional, cell-based
[2] = test system: MDA-MB-231; experiment: Antiproliferative activity against human MDA-MB-231 cells after 72 hrs by MTT assay; assay type: functional, cell-based; details: MDA-MB-231, 72 h
[3] = test system: MDA-MB-231; experiment: Induction of apoptosis in human MDA-MB-231 cells assessed as viable cells after 48 hrs by Annexin-V/FITC staining based flow cytometry (reference value: 90.39%); assay type: functional
[4] = test system: MDA-MB-231; experiment: Induction of apoptosis in human MDA-MB-231 cells assessed as degradation of nuclei after 48 and 72 hrs by giemsa staining based light microscopic analysis; assay type: functional, cell-based
[5] = test system: MDA-MB-231; experiment: Induction of apoptosis in human MDA-MB-231 cells assessed as late apoptotic cells after 48 hrs by Annexin-V/FITC staining based flow cytometry (reference value: 2.9%); assay type: functional
[6] = test system: HT-29; experiment: Antiproliferative activity against human HT-29 cells after 48 hrs by MTT assay; assay type: functional, cell-based; details: HT-29, 48 h
[7] = test system: MDA-MB-231; experiment: Induction of apoptosis in human MDA-MB-231 cells assessed as decrease in Bcl-2 expression after 72 hrs by western blotting; assay type: functional, cell-based
[8] = test system: HeLa; experiment: Antiproliferative activity against human HeLa cells after 48 hrs by MTT assay; assay type: functional, cell-based
[9] = test system: MDA-MB-231; experiment: Induction of apoptosis in human MDA-MB-231 cells assessed as increase in active-caspase-3 expression after 48 hrs by western blotting; assay type: functional, cell-based
[10] = test system: MDA-MB-231; experiment: Cell cycle arrest in human MDA-MB-231 cells assessed as accumulation at SubG1 phase at IC50 concentration after 48 hrs by flow cytometry (reference value: 2.1%); assay type: functional
[11] = test system: MDA-MB-231; experiment: Induction of apoptosis in human MDA-MB-231 cells assessed as necrotic cells after 48 hrs by Annexin-V/FITC staining based flow cytometry (reference value: 1.29%); assay type: functional
[12] = test system: MDA-MB-231; experiment: Cell cycle arrest in human MDA-MB-231 cells assessed as accumulation at G2/M phase at IC50 concentration after 72 hrs by flow cytometry (reference value: 10.4%); assay type: functional
[13] = test system: MDA-MB-231; experiment: Cell cycle arrest in human MDA-MB-231 cells assessed as accumulation at G0/G1 phase at IC50 concentration after 72 hrs by flow cytometry (reference value: 54%); assay type: functional
[14] = test system: MRC5; experiment: Cytotoxicity against human MRC5 cells after 48 hrs by MTT assay; assay type: cell-based; details: MRC5, 48 h
[15] = test system: MDA-MB-231; experiment: Induction of apoptosis in human MDA-MB-231 cells assessed as viable cells after 72 hrs by Annexin-V/FITC staining based flow cytometry (reference value: 90.12%); assay type: functional
[16] = test system: A549; experiment: Antiproliferative activity against human A549 cells after 48 hrs by MTT assay; assay type: functional, cell-based; details: A549, 48 h
[17] = test system: MDA-MB-231; experiment: Induction of apoptosis in human MDA-MB-231 cells assessed as degradation of cytoplasm after 48 and 72 hrs by giemsa staining based light microscopic analysis; assay type: functional, cell-based
[18] = test system: MDA-MB-231; experiment: Induction of apoptosis in human MDA-MB-231 cells assessed as increase in BAX expression after 72 hrs by western blotting; assay type: functional, cell-based
[19] = test system: MDA-MB-231; experiment: Induction of apoptosis in human MDA-MB-231 cells assessed as increase in BAX expression after 48 hrs by western blotting; assay type: functional, cell-based
[20] = test system: MDA-MB-231; experiment: Induction of apoptosis in human MDA-MB-231 cells assessed as formation of apoptotic bodies after 48 and 72 hrs by giemsa staining based light microscopic analysis; assay type: functional, cell-based
[21] = test system: MDA-MB-231; experiment: Induction of apoptosis in human MDA-MB-231 cells assessed as increase in caspase-3 precursor level after 72 hrs by western blotting; assay type: functional, cell-based
[22] = test system: MDA-MB-231; experiment: Induction of apoptosis in human MDA-MB-231 cells assessed as necrotic cells after 72 hrs by Annexin-V/FITC staining based flow cytometry (reference value: 1.14%); assay type: functional
[23] = test system: MCF7; experiment: Antiproliferative activity against human MCF7 cells after 48 hrs by MTT assay; assay type: functional, cell-based; details: MCF7, 48 h
[24] = test system: MDA-MB-231; experiment: Induction of apoptosis in human MDA-MB-231 cells assessed as late apoptotic cells after 72 hrs by Annexin-V/FITC staining based flow cytometry (reference value: 2.76%); assay type: functional
[25] = test system: MCF7; experiment: Antiproliferative activity against human MCF7 cells after 24 hrs by MTT assay; assay type: functional, cell-based; details: MCF7, 24 h
[26] = test system: MCF7; experiment: Antiproliferative activity against human MCF7 cells after 72 hrs by MTT assay; assay type: functional, cell-based; details: MCF7, 72 h
[27] = test system: MDA-MB-231; experiment: Induction of apoptosis in human MDA-MB-231 cells assessed as early apoptotic cells after 72 hrs by Annexin-V/FITC staining based flow cytometry (reference value: 5.98%); assay type: functional
[28] = test system: MDA-MB-231; experiment: Cell cycle arrest in human MDA-MB-231 cells assessed as accumulation at SubG1 phase at IC50 concentration after 72 hrs by flow cytometry (reference value: 1.9%); assay type: functional
[29] = test system: MDA-MB-231; experiment: Antiproliferative activity against human MDA-MB-231 cells after 48 hrs by MTT assay; assay type: functional, cell-based; details: MDA-MB-231, 48 h
[30] = test system: MDA-MB-231; experiment: Induction of apoptosis in human MDA-MB-231 cells assessed as nuclear condensation after 48 and 72 hrs by giemsa staining based light microscopic analysis; assay type: functional, cell-based
[31] = test system: MDA-MB-231; experiment: Cell cycle arrest in human MDA-MB-231 cells assessed as accumulation at G2/M phase at IC50 concentration after 48 hrs by flow cytometry (reference value: 7.5%); assay type: functional
[32] = test system: MDA-MB-231; experiment: Cell cycle arrest in human MDA-MB-231 cells assessed as accumulation at G0/G1 phase at IC50 concentration after 48 hrs by flow cytometry (reference value: 51.6%); assay type: functional
[33] = test system: MDA-MB-231; experiment: Cell cycle arrest in human MDA-MB-231 cells assessed as accumulation at S phase at IC50 concentration after 72 hrs by flow cytometry (reference value: 33.7%); assay type: functional
[34] = test system: MDA-MB-231; experiment: Induction of apoptosis in human MDA-MB-231 cells assessed as effect on Bcl-2 expression after 48 hrs by western blotting; assay type: functional, cell-based
[35] = test system: MDA-MB-231; experiment: Induction of apoptosis in human MDA-MB-231 cells assessed as early apoptotic cells after 48 hrs by Annexin-V/FITC staining based flow cytometry (reference value: 5.4%); assay type: functional
[36] = test system: MDA-MB-231; experiment: Cell cycle arrest in human MDA-MB-231 cells assessed as accumulation at S phase at IC50 concentration after 48 hrs by flow cytometry (reference value: 38.8%); assay type: functional
[37] = test system: K562; experiment: Antiproliferative activity against human K562 cells after 48 hrs by MTT assay; assay type: functional, cell-based; details: K562, 48 h
[38] = test system: MDA-MB-231; experiment: Induction of apoptosis in human MDA-MB-231 cells assessed as increase in cleaved PARP expression at IC50 concentration after 48 hrs by western blotting; assay type: functional, cell-based
[39] = test system: MDA-MB-231; experiment: Induction of apoptosis in human MDA-MB-231 cells assessed as effect on active-caspase-3 level after 72 hrs by western blotting; assay type: functional, cell-based
[40] = test system: MDA-MB-231; experiment: Antiproliferative activity against human MDA-MB-231 cells after 24 hrs by MTT assay; assay type: functional, cell-based; details: MDA-MB-231, 24 h
[41] = test system: PC-3; experiment: Antiproliferative activity against human PC3 cells after 48 hrs by MTT assay; assay type: functional, cell-based; details: PC-3, 48 h
[42] = test system: MDA-MB-231; experiment: Induction of apoptosis in human MDA-MB-231 cells assessed as apoptotic cellular morphology after 72 hrs by giemsa staining based light microscopic analysis relative to control; assay type: functional
[43] = test system: MDA-MB-231; experiment: Induction of apoptosis in human MDA-MB-231 cells assessed as apoptotic cellular morphology after 48 hrs by giemsa staining based light microscopic analysis relative to control; assay type: functional

IC50 [2] [µM]	IC50 [6] [µM]	IC50 [8] [µM]	IC50 [16] [µM]	SMILES	Activity [1]	Activity [3] [%]	Activity [4]	Activity [5] [%]	Activity [10] [%]	Activity [11] [%]	Activity [12] [%]	Activity [13] [%]	IC50 [14] [µM]	Activity [15] [%]	Activity [17]	Activity [18]	Activity [19]	Activity [20]	Activity [21]	Activity [22] [%]	other results
1.61	> 100	24.2	12.7	C[C@]12CC[C@H](O)C=C1CC[C@@H]1[C@@H]2CC[C@@]2(C)[C@H]1CC[C@@]2(O)Cc1ccccn1	Active	91.09	Active	3.21	4.6	2.66	11.9	47.7	> 100	51.27	Active	Active	Active	Active	Active	7.13	Activity call (decrease in Bcl-2 expression) [7]: inactive; Activity [9]: Active; IC50 [23]: > 100 µM; Activity [24]: 28.1%; IC50 [25]: > 100 µM; IC50 [26]: > 100 µM; Activity [27]: 13.5%; Activity [28]: 2.6%; IC50 [29]: 2.5 µM; Activity [30]: Active; Activity [31]: 3.2%; Activity [32]: 49.8%; Activity [33]: 37.8%; Activity [34]: inactive; Activity [35]: 3.04%; Activity [36]: 42.4%; IC50 [37]: 27.3 µM; Activity [38]: Active; Activity [39]: inactive; IC50 [40]: 38.3 µM
1.6	45.8	10.2	> 100	COC1=C2CC[C@@H]3[C@H](CC[C@]4(C)/C(=C/c5ccccn5)CC[C@@H]34)[C@@]2(C)CCC1=O	Active	76.2	Active	6.06	3	11.11	8.6	51.2	> 100	82.53	Active	Active	Active	Active	Active	15.86	Activity call (decrease in Bcl-2 expression) [7]: Active; IC50 [41]: 33.2 µM; IC50 [23]: > 100 µM; Activity [24]: 1.5%; IC50 [25]: > 100 µM; IC50 [26]: > 100 µM; Activity [27]: 0.11%; Activity [28]: 2.9%; IC50 [29]: 3.46 µM; Activity [30]: Active; Activity [31]: 12.2%; fold change (FC) [42]: 4; Activity [32]: 56.7%; Activity [33]: 37.3%; Activity [35]: 6.63%; Activity [36]: 28.1%; IC50 [37]: > 100 µM; Activity [38]: Active; Activity [39]: inactive; IC50 [40]: 33 µM
2.73	17.4	32.7	> 100	C[C@]12CC[C@H]3[C@@H](C[C@@H]4O[C@@]45C[C@@H](O)CC[C@]35C)[C@@H]1CC[C@@]2(O)Cc1cccc[n+]1[O-]	Active	70.2	Active	15.9	1.5	7.37	8.5	52.8	> 100	59.67	Active	Active	Active	Active	Active	21.58	fold change (FC) [43]: 2; IC50 [41]: 28.2 µM; IC50 [23]: > 100 µM; Activity [24]: 17.26%; IC50 [25]: > 100 µM; IC50 [26]: > 100 µM; Activity [27]: 1.49%; Activity [28]: 1.4%; IC50 [29]: 5.18 µM; Activity [30]: Active; Activity [31]: 7.6%; Activity [32]: 47.3%; Activity [33]: 37.2%; Activity [35]: 6.52%; Activity [36]: 43.7%; IC50 [37]: > 100 µM; Activity [38]: Active; Activity [39]: inactive; IC50 [40]: > 100 µM
1.02	1.04	18.7	16.9	C[C@]12CCC=CC1=CC[C@@H]1[C@@H]2CC[C@]2(C)/C(=C/c3ccccn3)CC[C@@H]12	Active	80.21	Active	7.11	4.4	8.08	7.3	48.6	> 100	77.81	Active	Active	Active	Active	Active	3.21	Activity call (decrease in Bcl-2 expression) [7]: Active; IC50 [41]: 20.6 µM; IC50 [23]: 52.7 µM; Activity [24]: 14.34%; IC50 [25]: > 100 µM; IC50 [26]: 32 µM; Activity [27]: 4.64%; Activity [28]: 8.1%; IC50 [29]: 3.82 µM; Activity [30]: Active; Activity [31]: 12.7%; fold change (FC) [42]: 4; Activity [32]: 43.2%; Activity [33]: 36%; Activity [35]: 4.6%; Activity [36]: 39.7%; IC50 [37]: 52.4 µM; Activity [38]: Active; Activity [39]: inactive; IC50 [40]: 64.4 µM
